We go through 1 molecule from patent US9453026B2, “ACC inhibitors and uses thereof” (Gilead Apollo, Inc., priority 2011, dated 2016).

The test system of one assay is Candida species. The assay is described as follows: Anti-Fungal Activity Assay, summary over Candida species. Conditions: summary of Table 3. It counts as cell-based. Here is the method: (§1) Compounds of the present invention were evaluated in an Anti-Fungal Activity Assay. An exemplary procedure for the assay, which measures the susceptibility of various Candida species to anti-fungal compounds, follows. Compounds to be tested (including fluconazole and amphotericin B) were dissolved in DMSO to obtain a solution having a concentration of 1 mg/mL. […] All species were grown from frozen stock by directly plating on to freshly prepared Sabouraud Dextrose agar (BD, Difco) and incubated overnight in ambient air at 35° C. for 24 h. A direct suspension was prepared in RPMI 1640+MOPS (Lonza, Biowhittaker) by taking individual colonies from the overnight cultures using sterile swabs soaked in sterile saline. The concentration of the suspension was determined using pre-determined standard curves. […] The original CLSI guidelines focused on reading Candida MICs after 48 h of incubation. As reading after only 24 h offers a clear advantage of patient care, QC limits are being established for all drugs at 24 h. That being said there are no known interpretive breakpoints for amphotericin B at 24 h and the current fluconazole interpretive breakpoints are based on a 48 h reading. The MIC breakpoints for the Pharmaron test compounds were recorded at 48 h, and for the soraphen the 24 h time-point was added. All MIC determinations were achieved by visually comparing the growth found in the antibiotic challenged wells to that of the growth control.

The test system of another assay is target protein (ACC). Briefly: Thermal Shift Assay (TSA). The class given is binding. Conditions: FIG. 3. An excerpt: 103, 43, 15835-15840, the entirety of which is incorporated herein by reference.
The next assay deals with ACC2 (Homo sapiens, UniProt O00763). The assay is described as follows: In vitro ACC2 inhibition assay (ADP-Glo). It counts as biochemical. The conditions noted are these: read-out: ACC2. In a few lines: (§2)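 Enzyme (human ACC1 or ACC2) and compound, serially diluted 1:3 over 11 points from a 600 uM DMSO stock, were preincubated 15 min before substrate addition.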
In general terms: In ADP-Glo the light output rises with the ADP produced.

For a further assay, the target named is ACC1 (Homo sapiens, UniProt Q13085). The assay is described as follows: In vitro ACC1 inhibition assay (ADP-Glo). It counts as biochemical. The conditions noted are these: read-out: ACC1. The essentials: as §2
A further assay deals with C. krusei ATCC 6258. Briefly: Anti-Fungal Activity Assay (broth microtiter MIC). It counts as cell-based. Conditions: 3 replicates, test compounds read at 48 h. Here is the method: as §1
The test system of assay [1] is C. parapsilosis ATCC 22019. Briefly: Anti-Fungal Activity Assay (broth microtiter MIC). The class given is cell-based. The conditions noted are these: 3 replicates, test compounds read at 48 h. How it is done:
as §1

The subject of a further assay is C. albicans ATCC 90028. Briefly: Anti-Fungal Activity Assay (broth microtiter MIC). It counts as cell-based. Conditions: 3 replicates, test compounds read at 48 h. Here is the method: as §1
The test system of another assay is HepG2 cells. Briefly: [14C] Acetate Incorporation HepG2 Cellular Assay. The conditions noted are these: Homo sapiens; HepG2 cells, FIG. 4; read-out: IC50, incorporation of isotopically labeled acetate into fatty acids. The class given is cell-based. How it is done: Compounds of the present invention were evaluated in a [^14C] Acetate Incorporation Assay. An exemplary procedure for the assay, which measures the incorporation of isotopically labeled acetate into fatty acids, follows. HepG2 cells were maintained in T-75 flasks containing DMEM supplemented with 2 mM 1-glutamine, penicillin G (100 units/ml), streptomycin 100 μg/ml with 10% FBS and incubated in a humidified incubator with 5% CO2 at 37° C. Cells were fed every 2-3 days. On Day 1. cells were seeded in 24 well plates at a density of 1.2×10^5 cells/ml/well with the growth medium. On Day 3 the medium was replaced with fresh medium containing 10% FBS. On Day 4 the medium was replaced with 0.5 ml of fresh medium containing test compound (in DMSO; final [DMSO] is 0.5%) and the cells were incubated at 37° C. for 1 hour. To one copy of plate, 4 ul of [2-^14C]acetate (56 mCi/mmol; 1 mCi/ml; PerkinElmer) was added and the cells were incubated at 37° C., 5% CO2 for 5 hrs. To a second copy of plate, 4 ul of cold acetate were added and the cells were incubated at 37° C., 5% CO2 for 5 hrs. This plate was used for protein concentration measurement. Medium was removed and placed in a 15 ml centrifuge tube (BD, Falcon/352096). Cells were rinsed with 1 ml PBS, then aspirated, and the rinse and aspiration steps were repeated. 0.5 ml of 0.1N NaOH were added to each well and let sit at RT to dissolve cell monolayer. The remaining cell suspension was pooled with medium. For the protein determination plate, an aliquot was removed for protein determination (25 ul). […] 5 ml petroleum ether was added per tube, shaken vigorously, centrifuged at 1000 rpm for 5 min, and 500 uL of the petroleum ether layer was transferred to tubes for Microbeta reading, then 2 ml Aquasol-2 were added to each tube, the tubes were shaken and counted with a Microbeta Liquid Scintillation Counter (Perkin Elmer).
The remaining petroleum ether layer was discarded and the aqueous phase reserved for fatty acid extractions. […] 2 ml of Aquasol-2 was added to each vial, and the vials were shaken and counted on a scintillation counter.

The test system of assay [2] is LNCaP (prostate cancer cell line) cells. The assay is described as follows: Cancer Cell Viability Assay. It counts as cell-based, human. The conditions noted are these: concentration of 5 uM, FIG. 5. How it is done: Compounds of the invention were also assayed in a Cancer Cell Viability Assay as described by Beckers et al. “Chemical Inhibition of Acetyl-CoA Carboxylase Induces Growth Arrest and Cytotoxicity Selectively in Cancer Cells” Cancer Res. (2007) 67, 8180-8187. An exemplary procedure for the assay, which measures the percentage of cancer cells surviving following administration of inhibitor compounds, follows.
LNCaP (prostate cancer cell line) cells plated at 4×10^5 per 6 cm dish were incubated at 37° C., and the following day they were treated with increasing concentrations of inhibitor compounds and incubated. Viable cells and the percentage of dead cells was counted and calculated every day for 5 days from day 0, using trypan blue staining.

≈ marks a conversion by molar mass, not a printed value. Read-outs that look alike come from different tables or passages of the source. Where only a bound is given, the exact number is not on record here.

ACC2, sequence (O00763 whole entry, species assumed): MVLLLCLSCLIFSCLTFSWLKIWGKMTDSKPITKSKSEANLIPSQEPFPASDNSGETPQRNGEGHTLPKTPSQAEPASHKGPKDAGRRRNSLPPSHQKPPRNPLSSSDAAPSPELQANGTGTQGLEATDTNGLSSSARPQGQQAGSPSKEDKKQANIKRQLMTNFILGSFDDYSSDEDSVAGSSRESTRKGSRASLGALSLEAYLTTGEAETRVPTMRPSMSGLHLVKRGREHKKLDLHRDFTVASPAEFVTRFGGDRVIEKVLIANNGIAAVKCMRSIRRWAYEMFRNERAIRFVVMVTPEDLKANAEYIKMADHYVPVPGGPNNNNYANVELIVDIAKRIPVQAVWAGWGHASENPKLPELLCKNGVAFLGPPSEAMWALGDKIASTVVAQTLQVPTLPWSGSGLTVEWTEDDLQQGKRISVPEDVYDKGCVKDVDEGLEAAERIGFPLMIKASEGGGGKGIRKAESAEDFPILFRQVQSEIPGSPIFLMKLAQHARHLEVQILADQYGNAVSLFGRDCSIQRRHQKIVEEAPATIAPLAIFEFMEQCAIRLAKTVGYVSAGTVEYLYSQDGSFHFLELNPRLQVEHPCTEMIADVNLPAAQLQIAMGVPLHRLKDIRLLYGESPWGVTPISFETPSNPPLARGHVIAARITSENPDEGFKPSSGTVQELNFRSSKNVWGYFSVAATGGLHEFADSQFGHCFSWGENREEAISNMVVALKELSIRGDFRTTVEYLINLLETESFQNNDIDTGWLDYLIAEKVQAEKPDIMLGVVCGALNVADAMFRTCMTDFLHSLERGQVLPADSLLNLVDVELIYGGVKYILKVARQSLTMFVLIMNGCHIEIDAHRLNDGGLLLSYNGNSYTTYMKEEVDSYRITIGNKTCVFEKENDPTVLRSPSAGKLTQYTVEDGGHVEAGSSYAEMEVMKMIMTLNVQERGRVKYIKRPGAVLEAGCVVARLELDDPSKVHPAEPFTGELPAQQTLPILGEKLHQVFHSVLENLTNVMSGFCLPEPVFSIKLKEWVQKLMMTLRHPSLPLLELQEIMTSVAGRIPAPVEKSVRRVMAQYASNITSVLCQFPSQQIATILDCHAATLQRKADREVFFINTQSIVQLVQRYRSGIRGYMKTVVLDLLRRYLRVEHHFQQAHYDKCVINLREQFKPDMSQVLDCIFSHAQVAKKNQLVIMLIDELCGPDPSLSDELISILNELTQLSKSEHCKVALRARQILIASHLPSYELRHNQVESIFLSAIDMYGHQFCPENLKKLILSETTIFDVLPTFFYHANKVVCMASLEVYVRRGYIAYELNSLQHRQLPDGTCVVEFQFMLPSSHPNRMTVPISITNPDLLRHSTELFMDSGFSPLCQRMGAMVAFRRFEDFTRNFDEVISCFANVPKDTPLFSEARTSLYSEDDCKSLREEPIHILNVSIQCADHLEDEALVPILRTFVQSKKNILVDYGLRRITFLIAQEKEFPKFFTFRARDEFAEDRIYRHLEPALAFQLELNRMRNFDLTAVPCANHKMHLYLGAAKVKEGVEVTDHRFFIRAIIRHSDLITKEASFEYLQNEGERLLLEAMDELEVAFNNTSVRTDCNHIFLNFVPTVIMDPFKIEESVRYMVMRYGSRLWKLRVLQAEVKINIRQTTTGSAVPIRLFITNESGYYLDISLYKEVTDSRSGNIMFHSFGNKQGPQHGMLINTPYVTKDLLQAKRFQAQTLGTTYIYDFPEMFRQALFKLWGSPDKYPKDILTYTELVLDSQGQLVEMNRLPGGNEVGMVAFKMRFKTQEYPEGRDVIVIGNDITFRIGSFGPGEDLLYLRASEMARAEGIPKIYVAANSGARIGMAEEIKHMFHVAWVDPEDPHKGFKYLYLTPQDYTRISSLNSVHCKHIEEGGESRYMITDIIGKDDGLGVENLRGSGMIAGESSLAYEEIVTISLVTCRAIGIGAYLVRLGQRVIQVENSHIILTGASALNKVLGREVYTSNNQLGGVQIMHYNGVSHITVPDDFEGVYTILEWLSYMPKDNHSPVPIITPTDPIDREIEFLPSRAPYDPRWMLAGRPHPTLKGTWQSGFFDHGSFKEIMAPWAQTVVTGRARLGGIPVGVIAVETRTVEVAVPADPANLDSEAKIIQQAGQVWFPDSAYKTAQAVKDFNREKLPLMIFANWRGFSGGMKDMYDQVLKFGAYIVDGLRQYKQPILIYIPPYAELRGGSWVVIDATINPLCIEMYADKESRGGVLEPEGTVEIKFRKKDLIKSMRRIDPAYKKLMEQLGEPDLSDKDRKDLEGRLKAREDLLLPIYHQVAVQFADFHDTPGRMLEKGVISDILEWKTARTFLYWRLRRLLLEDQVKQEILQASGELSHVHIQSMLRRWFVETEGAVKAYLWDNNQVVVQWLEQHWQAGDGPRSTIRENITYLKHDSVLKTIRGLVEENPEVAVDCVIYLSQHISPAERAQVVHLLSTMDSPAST

As a reminder, the MIC is the lowest concentration found to suppress growth. As for `COc1ccccc1[C@@H](Cn1c(=O)n(C(C)(C)C(=O)O)c(=O)c2c(C)c(-c3ncco3)sc21)OC(C)C` [I-158, 2-[1-[(2S)-2-(2-methoxyphenyl)-2-(propan-2-yloxy)ethyl]-5-methyl-6-(1,3-oxazol-2-yl)-2,4-dioxo-1H,2H,3H,4H-thieno[2,3-d]pyrimidin-3-yl]-2-methylpropanoic acid], the “anti-fungal activity MICs” value with Candida species is on record as “low ug/mL range”. The “thermal melting point change compared with Soraphen A” value in the assay with target protein (ACC) is “equivalent to that of Soraphen A”. For the same molecule, the IC50 on ACC2, on ACC1 and in the assay on HepG2 cells was < 100 nM each time. In addition, the MIC in the assay on C. krusei ATCC 6258 was 2 µg/mL (≈ 3.79 µM); in the assay with C. krusei ATCC 6258 (Pichia kudriavzevii, ATCC6258, 48 h, read-out: MIC) it was 2 µg/mL (≈ 3.79 µM); in assay [1] it was 8 µg/mL (≈ 15.2 µM); in assay [1] (Lodderomyces parapsilosis, ATCC22019, 48 h, read-out: MIC), 8 µg/mL (≈ 15.2 µM); with C. albicans ATCC 90028 it was 2 µg/mL (≈ 3.79 µM); with C. albicans ATCC 90028 (Candida albicans, ATCC90028, 48 h, read-out: MIC) it was 2 µg/mL (≈ 3.79 µM). Moreover, the cell population growth entry in [2] is reported as “completely inhibit cell population growth”.
